For test [1], the target named is T1, IF2 (protein core, residues 1-363) (Thermus thermophilus, UniProt P48515).
T1 construct: gene infB; proteolysed during crystallization to residues 1-363 (40 kDa; N domain, G domain, domain II, start of domain III); one molecule per asymmetric unit
T1 sequence (P48515 1-363): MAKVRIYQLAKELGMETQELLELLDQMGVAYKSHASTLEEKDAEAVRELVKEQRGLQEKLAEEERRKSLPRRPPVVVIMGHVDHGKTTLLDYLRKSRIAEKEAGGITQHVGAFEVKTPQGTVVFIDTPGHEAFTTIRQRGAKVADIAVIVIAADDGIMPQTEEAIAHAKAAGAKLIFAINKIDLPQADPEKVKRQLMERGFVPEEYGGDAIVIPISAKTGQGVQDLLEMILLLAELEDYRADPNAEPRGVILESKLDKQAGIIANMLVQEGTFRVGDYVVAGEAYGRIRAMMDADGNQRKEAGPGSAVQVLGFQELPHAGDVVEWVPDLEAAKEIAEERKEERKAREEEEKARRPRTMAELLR
The test is described as follows: X-ray crystal structure, […] A, crystal soaking. The settings on record: 30 s soak with GTP-containing cryoprotectant; Mg2+ bound; pH 7.5 protein buffer; G-domain P-loop site; GTP occupancy 0.68. The format is binding.

Test [2] concerns the target T1, IF2 (protein core, residues 1-363). The test is described as follows: X-ray crystal structure, […] A, crystal soaking. The format is binding. Particulars: 5 mM GDP added to the crystallization drop; Mg2+ bound; pH 7.5 protein buffer; G-domain P-loop site.

As to `Nc1nc2c(ncn2[C@@H]2O[C@H](COP(=O)(O)OP(=O)(O)OP(=O)(O)O)[C@@H](O)[C@H]2O)c(=O)[nH]1` [GTP], the “X-ray crystal structure, 2.8 A, crystal soaking” value in test [1] was 4b3x, 4b48, 4b47 for the apo, GTP and GDP complexes, respectively. As to `Nc1nc2c(ncn2[C@@H]2O[C@H](COP(=O)(O)OP(=O)(O)O)[C@@H](O)[C@H]2O)c(=O)[nH]1` [GDP], the “X-ray crystal structure, 2.3 A, crystal soaking” value in test [2] was 4b3x, 4b48, 4b47 for the apo, GTP and GDP complexes, respectively.

The values above are taken from article PMC3663118, “Structure of the protein core of translation initiation factor 2 in apo, GTP-bound and GDP-bound forms” (Acta Crystallographica Section D: Biological Crystallography, 2013).
